Calls of active or inactive are those of the source. No cut-off for these calls is given here.
Assays:
[1] = biological target: T1, Peptidyl-prolyl cis-trans isomerase FKBP1A (Homo sapiens, UniProt P62942); assay: Antagonist activity at human FKBP12 measured after 30 mins by fluorescein labelled SLF tracer based fluorescence polarization assay
[2] = biological target: T1, Peptidyl-prolyl cis-trans isomerase FKBP1A; assay: (§1) Antagonist activity at recombinant human N-terminal His6-tagged FKBP12 expressed in Escherichia coli assessed as inhibition of FKBP12 binding to calcineurin at 5 uL using […] pretreated for 1 hr followed by substrate addition measured after 1 hr by biomol green dye based spectrophotometric method
Jurkat = assay: Immunosuppressive activity in PMA/ionomycin stimulated human Jurkat T cells assessed as suppression of IL2 production pretreated for 15 to 30 mins followed by PMA/ionomycin addition measured after 18 to 20 hrs by ELISA; type: cell-based
PBMC [3] = assay: Antiproliferative activity against concanavalin A stimulated human PBMC at 1 to 2 ug/ml measured after 72 hrs by CellTiter-Glo assay; type: cell-based
Aspergillus fumigatus [4] = assay: Antifungal activity against Aspergillus fumigatus assessed as spore germination at 12.5 ug/ml measured after 48 hrs in presence of FK506 by broth dilution method relative to control; type: functional
Aspergillus fumigatus [5] = assay: Antifungal activity against Aspergillus fumigatus up to 25 ug/ml measured after 48 hrs by broth dilution method; type: functional
HepG2 = assay: Cytotoxicity against human HepG2 cells; type: cell-based
Vero 76 = assay: Cytotoxicity against African green monkey Vero 76 cells; type: cell-based; settings: Chlorocebus sabaeus
[6] = Clearance in mouse at 3 mg/kg, iv; type: ADME, organism-based; settings: in vivo
[7] = Volume of distribution at steady state in mouse at 3 mg/kg, iv; type: ADME, organism-based; settings: in vivo, read-out: Vdss
[8] = Terminal half-life in mouse at 3 mg/kg, iv; type: ADME, organism-based; settings: in vivo, read-out: beta t1/2 (converted)
[9] = AUClast in mouse at 3 mg/kg, iv; type: ADME, organism-based; set-up: dose 3 mg/kg, time 0 - last, route intravenous; settings: in vivo
[10] = Antagonist activity at Aspergillus fumigatus FKBP12 measured after 30 mins by fluorescein labelled SLF tracer based fluorescence polarization assay
[11] = biological target: T1, Peptidyl-prolyl cis-trans isomerase FKBP1A; assay: as §1, with “of FK506 mediated” for “of”, “calcineurin” for “calcineurin at 5 uL”
PBMC [12] = assay: Reversal of FK506-induced inhibition of cell proliferation in concanavalin A stimulated human PBMC at 1 uM measured after 72 hrs by CellTiter-Glo assay relative to control; type: functional; set-up: scale not given: the % may be the effect or the level left
PBMC [13] = assay: Reversal of FK506-induced inhibition of cell proliferation in concanavalin A stimulated human PBMC at 0.1 uM measured after 72 hrs by CellTiter-Glo assay; type: functional, cell-based
Aspergillus fumigatus [14] = assay: Antifungal activity against Aspergillus fumigatus assessed as spore germination at 6.25 to 25 ug/ml measured after 48 hrs in presence of FK506 by broth dilution method; type: functional
[15] = Tmax in mouse at 10 mg/kg, po; type: ADME, organism-based; settings: in vivo
[16] = Cmax in mouse at 10 mg/kg, po; type: ADME, organism-based; set-up: dose 10 mg/kg, route oral; settings: in vivo
[17] = AUClast in mouse at 10 mg/kg, po; type: ADME, organism-based; set-up: dose 10 mg/kg, time 0 - last, route oral; settings: in vivo

T1 sequence (P62942 whole entry): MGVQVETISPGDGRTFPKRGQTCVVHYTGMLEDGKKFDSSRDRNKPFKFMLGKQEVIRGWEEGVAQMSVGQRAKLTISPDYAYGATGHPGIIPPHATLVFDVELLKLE

IC50 [1] [nM]	inhibition [2]	IC50 (Jurkat) [nM]	clearance [6] [mL/min/kg]	Vd [7] [L/kg]	half-life [8] [min]	AUC(0-t) [9] [ng·h/mL]	IC50 [10] [nM]	IC50 [11] [nM]	Tmax [15] [min]	Cmax [16] [ng/mL]	AUC(0-t) [17] [ng·h/mL]	Structure (SMILES)	Activity (PBMC [3])	Activity (Aspergillus fumigatus [4])	Activity (Aspergillus fumigatus [5])	IC50 (HepG2) [nM]	IC50 (Vero 76) [nM]	Activity (PBMC [12]) [%]	Activity (PBMC [13])	Activity (Aspergillus fumigatus [14])
14.3	inactive	> 10000						850				CO[C@H]1C[C@@H](C)C/C(C)=C/[C@@H](CCCC(=O)NCCc2ccccn2)C(=O)C[C@H](O)[C@@H](C)[C@@H](/C(C)=C/[C@@H]2CC[C@@H](O)[C@H](OC)C2)OC(=O)[C@@H]2CCCCN2C(=O)C(=O)[C@]2(O)O[C@H]1[C@@H](OC)C[C@H]2C	Non-Toxic	31%	inactive	> 100000	> 100000	36.6		
19.1	inactive	> 10000										CO[C@H]1C[C@@H](C)C/C(C)=C/[C@@H](CCCC(=O)N2CCN(C)CC2)C(=O)C[C@H](O)[C@@H](C)[C@@H](/C(C)=C/[C@@H]2CC[C@@H](OCCO)[C@H](OC)C2)OC(=O)[C@@H]2CCCCN2C(=O)C(=O)[C@]2(O)O[C@H]1[C@@H](OC)C[C@H]2C	Non-Toxic	24 - 42%	inactive	> 100000	> 100000	67.8	inactive	Active
12.6	inactive	> 10000						1810				CO[C@H]1C[C@@H](C)C/C(C)=C/[C@@H](/C=C/CCCC(=O)N2CCNCC2)C(=O)C[C@H](O)[C@@H](C)[C@@H](/C(C)=C/[C@@H]2CC[C@@H](O)[C@H](OC)C2)OC(=O)[C@@H]2CCCCN2C(=O)C(=O)[C@]2(O)O[C@H]1[C@@H](OC)C[C@H]2C	Non-Toxic	36.5%	inactive	> 100000	> 100000	27.5		
19.2	inactive	> 10000										CO[C@H]1C[C@@H](C)C/C(C)=C/[C@@H](CCN(C)C)C(=O)C[C@H](O)[C@@H](C)[C@@H](/C(C)=C/[C@@H]2CC[C@@H](O)[C@H](OC)C2)OC(=O)[C@@H]2CCCCN2C(=O)C(=O)[C@]2(O)O[C@H]1[C@@H](OC)C[C@H]2C	Non-Toxic	54.3%	inactive	> 100000	> 100000	105.6		

Further lines, the molecule ahead of its results:

Structure (SMILES)	IC50 [1] [nM]	inhibition [2]	IC50 (Jurkat) [nM]	clearance [6] [mL/min/kg]	Vd [7] [L/kg]	half-life [8] [min]	AUC(0-t) [9] [ng·h/mL]	IC50 [10] [nM]	IC50 [11] [nM]	Tmax [15] [min]	Cmax [16] [ng/mL]	AUC(0-t) [17] [ng·h/mL]	Activity (PBMC [3])	Activity (Aspergillus fumigatus [4])	Activity (Aspergillus fumigatus [5])	IC50 (HepG2) [nM]	IC50 (Vero 76) [nM]	Activity (PBMC [12]) [%]	Activity (PBMC [13])	Activity (Aspergillus fumigatus [14])
CO[C@H]1C[C@@H](C)C/C(C)=C/[C@@H](CC(=O)N2CCCC2)C(=O)C[C@H](O)[C@@H](C)[C@@H](/C(C)=C/[C@@H]2CC[C@@H](O)[C@H](OC)C2)OC(=O)[C@@H]2CCCCN2C(=O)C(=O)[C@]2(O)O[C@H]1[C@@H](OC)C[C@H]2C	22.1	inactive	> 10000	22.8	1.01	42.8	2140						Non-Toxic	90.5%	inactive	> 100000	> 100000			
CC[C@@H]1/C=C(\C)C(O)[C@H](C)C[C@H](OC)[C@H]2O[C@@](O)(C(=O)C(=O)N3CCCC[C@H]3C(=O)O[C@H](/C(C)=C/[C@@H]3CC[C@@H](O)[C@H](OC)C3)[C@H](C)[C@@H](O)CC1=O)[C@H](C)C[C@@H]2OC (some centres undefined)	6.8	inactive	> 10000	60.8	2.58	66.6	787	18.5	1310	15	184	208	Non-Toxic	83 - 86.8%	inactive	> 100000	> 100000	78.7	inactive	inactive
CC[C@@H]1/C=C(\C)C[C@H](C)C[C@H](OC)[C@H]2O[C@@](O)(C(=O)C(=O)N3CCCC[C@H]3C(=O)O[C@H](/C(C)=C/[C@@H]3CC[C@@H](OC(=O)N4CCN(C)CC4)[C@H](OC)C3)[C@H](C)[C@@H](O)CC1=O)[C@H](C)C[C@@H]2OC	11	inactive	> 10000						1740				Non-Toxic	68%	inactive	> 100000	> 100000	79.8		
CO[C@H]1C[C@@H](C)C/C(C)=C/[C@@H](CCCC(=O)NCCN2CCOCC2)C(=O)C[C@H](O)[C@@H](C)[C@@H](/C(C)=C/[C@@H]2CC[C@@H](O)[C@H](OC)C2)OC(=O)[C@@H]2CCCCN2C(=O)C(=O)[C@]2(O)O[C@H]1[C@@H](OC)C[C@H]2C	11.5	inactive	> 10000						824				Non-Toxic	39.7%	inactive	> 100000	> 100000	45.9		
CO[C@H]1C[C@@H](C)C/C(C)=C/[C@@H](CCCC(=O)N2CC(O)C2)C(=O)C[C@H](O)[C@@H](C)[C@@H](/C(C)=C/[C@@H]2CC[C@@H](O)[C@H](OC)C2)OC(=O)[C@@H]2CCCCN2C(=O)C(=O)[C@]2(O)O[C@H]1[C@@H](OC)C[C@H]2C	12.5	inactive	> 10000						1110				Non-Toxic	24%	inactive	> 100000	> 100000	49.9		
CO[C@H]1C[C@@H](C)C/C(C)=C/[C@@H](CCCC(=O)N2CC(N3CCOCC3)C2)C(=O)C[C@H](O)[C@@H](C)[C@@H](/C(C)=C/[C@@H]2CC[C@@H](O)[C@H](OC)C2)OC(=O)[C@@H]2CCCCN2C(=O)C(=O)[C@]2(O)O[C@H]1[C@@H](OC)C[C@H]2C	9.52	inactive	> 10000					12.8	1080				Non-Toxic	49.6%	inactive	> 100000	> 100000	49.3		
CO[C@H]1C[C@@H](C)C/C(C)=C/[C@@H](CCCC(=O)N2CCN(Cc3ccccn3)CC2)C(=O)C[C@H](O)[C@@H](C)[C@@H](/C(C)=C/[C@@H]2CC[C@@H](O)[C@H](OC)C2)OC(=O)[C@@H]2CCCCN2C(=O)C(=O)[C@]2(O)O[C@H]1[C@@H](OC)C[C@H]2C	11.2	inactive	> 10000						1290				Non-Toxic	47.4%	inactive	> 100000	> 100000	88.3		
CO[C@H]1C[C@@H](C)C/C(C)=C/[C@@H](CCCC(=O)N(CCO)CCO)C(=O)C[C@H](O)[C@@H](C)[C@@H](/C(C)=C/[C@@H]2CC[C@@H](O)[C@H](OC)C2)OC(=O)[C@@H]2CCCCN2C(=O)C(=O)[C@]2(O)O[C@H]1[C@@H](OC)C[C@H]2C	13.4	inactive	> 10000					22.5	989				Non-Toxic	35.7%	inactive	> 100000	> 100000	36.2		
